According to paper PMC6349357, “Computational and experimental analysis of bioactive peptide linear motifs in the integrin adhesome” (PLoS ONE, 2019):

What was measured:
resting platelets = test: Platelet aggregation induced by peptide in resting washed platelets (activation); format: cell-based, human (healthy volunteers); conditions: for Activation: platelet aggregation in resting platelets after 6 minutes incubation with peptide, pal-peptides 20 μM, tat-peptides 50 μM, optical density, aggregometer, mean, n>=3, unit assumed; for Aggregation before TRAP activation, donor h: replicate donor h; for Aggregation before TRAP activation, donor h / Aggregation before TRAP activation, donor i / Aggregation before TRAP activation, donor j: pal 20 μM, tat 50 μM; for Aggregation before TRAP activation, donor i: replicate donor i; for Aggregation before TRAP activation, donor j: replicate donor j
Experimental: (§1) Blood was drawn from healthy volunteers into a syringe containing a final volume of 15% Acid Citrate Dextrose (ACD). The blood/ACD mixture was then aliquoted into 15 ml Cellstar tubes, at volumes of 5ml per tube, and centrifuged at 150 rcf for 10 minutes to obtain platelet rich plasma (PRP). PRP was then transferred to a 50ml tube using a pipette. The pH was then adjusted to 6.5. Prostaglandin (PGE1) was then added with a final concentration of 1μM. The PRP was then centrifuged at 750 rcf. After centrifugation the platelet poor plasma (PPP) was discarded and the pellet was resuspended in buffer A (6 mM dextrose, 130 mM NaCl, 9 mM NaHCO3, 10 mM sodium citrate, 10 mM Tris base, 3 mM KCl, 0.81 mM KH2PO4 and 0.9 mM MgCl26H2O, pH 7.4). A platelet concentration of 3x10^5/μl or 1x10^6/μl was obtained by dilution depending on the experiment in which they were used. Platelets were left to rest for 45 minutes and supplemented with 1.8mM calcium chloride prior to use.
(§2) A platelet concentration of 3x10^5 /μl was used when performing standard aggregations and a concentration of 1x10^6 /μl was used for sample preparation for western blot analysis. The extent of platelet aggregation was measured by quantifying the optical density of the samples using the Bio-Data PAP-8 aggregometer (platelet aggregation profiler, Horsham, PA, USA). A temperature of 37°C was maintained and samples were stirred using magnets spinning at 1100 rpm. 200 μl of washed platelets was added to each aggregation tube. Different volumes of buffer, peptide and TRAP were added to achieve the desired concentrations. Peptide/buffer was added to each well after two minutes. TRAP, with a final concentration depending on the experiment, was added 6 minutes later and data was collected for an additional 7 minutes.

TRAP-activated platelets = test: Inhibition of TRAP-induced platelet aggregation after pre-incubation with peptide; format: cell-based, human (healthy volunteers); conditions: for Platelet aggregation remaining after TRAP (low = inhibition): platelet aggregation induced by 4 μM TRAP in platelets pre-incubated with peptide (low value = inhibition), pal-peptides 20 μM, tat-peptides 50 μM, mean, n>=3; for Aggregation after TRAP activation, donor h: replicate donor h; for Aggregation after TRAP activation, donor h / Aggregation after TRAP activation, donor i / Aggregation after TRAP activation, donor j: TRAP 4 μM, pal 20 μM, tat 50 μM; for Aggregation after TRAP activation, donor i: replicate donor i; for Aggregation after TRAP activation, donor j: replicate donor j
Experimental: as §1, §2

Substance | Activation (resting platelets) [%] | Aggregation before TRAP activation, donor h (resting platelets) | Aggregation before TRAP activation, donor i (resting platelets) | Aggregation before TRAP activation, donor j (resting platelets) | Platelet aggregation remaining after TRAP (low = inhibition) (TRAP-activated platelets) | Aggregation after TRAP activation, donor h (TRAP-activated platelets) | Aggregation after TRAP activation, donor i (TRAP-activated platelets) | Aggregation after TRAP activation, donor j (TRAP-activated platelets)
tat-EGERALPSIPKLAN-(NH2) [tat-FAK_1, tat peptide from PTK2/FAK1] | 4 | 4 | 4 | 4 | 72 | 76 | 66 | 74
tat-EPDFPPPPPDLE-(NH2) [tat-VCL, tat peptide from VCL] | 4 | 4 | 4 | 4 | 70 | 68 | 67 | 77
tat-GRDKYKTLRQIRQGNTKQRIDEFESM [tat-MSN, tat peptide from MSN] | 3 | 3 | 3 | 4 | 73 | 76 | 68 | 75
tat-KRAPQMDWSKKNELFSNL [tat-NHERF1, tat peptide from NHERF1] | 3 | 4 | 3 | 3 | 70 | 71 | 66 | 75
tat-SKPIGPDDAIDALSSDFTS-(NH2) [tat-CAST_2, tat peptide from calpastatin (CAST)] | 3 | 3 | 4 | 4 | 74 | 78 | 69 | 76
tat-SVSETDDpYAEIIDE-(NH2) [tat-FAK_2, tat peptide from PTK2/FAK1, phosphorylated tyrosine] | 3 | 4 | 3 | 4 | 71 | 77 | 61 | 76
